Results reported in patent US11400091B2, “AXL kinase inhibitors and use of the same” (Sumitomo Pharma Oncology, Inc., priority 2018, dated 2022).

Legend:
[1] = Pharmacokinetic testing of salt forms, oral dosing; format: in vivo; conditions: Sprague-Dawley, rat, plasma, 18.2 mg/kg, fasted male rats, PO 14.3-18.7 mg/kg (row Dose), mean
Method: Fasted male Sprague-Dawley rats were dosed with an oral formulation of each salt form as well as the free base form. […] The mean plasma concentration after PO dosing is illustrated in FIG. 1. The data (mean values) for the 5 different salt forms and the free base is included in Table 8, below.

[2] = system: KRAS mutant HCT-116; test: HCT-116 xenograft; format: in vivo, athymic nude mice
Method: Athymic nude mice were injected in the hind-flank with 10 million cells and stratified into cohorts of 10 mice. Compounds were formulated in 5% (w/v) TPGS and 1% (v/v) PS80 in H20 and administered my oral gavage. Tumor volumes (FIG. 106A) and body weights were measured twice a week (FIG. 106B). Intra-tumoral GAS6 expression was quantified via RT-qPCR.

SMILES: CN1CCN(Cc2ccc(Nc3ncc(Cl)c(Nc4ccccc4S(=O)(=O)N(C)C)n3)cc2)CC1 [compound of structure (I), 2-((5-chloro-2-((4-((4-methylpiperazin-1-yl)methyl)phenyl)amino)pyrimidin-4-yl)amino)-N,N-dimethylbenzenesulfonamide]
- Cmax [1]: 116 ng/mL
- Tmax [1]: 50 min
- bioavailability [1]: 26.9%
- AUC(0-t) ([1]; read-out: AUC0-24 hours): 458 ng·h/mL
- adverse events ([2]; 40 mg/kg cohort): without adverse events
- tumor growth inhibition (% TGI) ([2]; 40 mg/kg, oral gavage): 69%
